Test results: patent US8471005B2 (Cephalon, Inc., priority 2008, dated 2013)
Read-outs that look alike come from different tables or passages of the source.

What was measured:
[1] = molecular target: T1, ALK (Homo sapiens, UniProt Q9UM73); experiment: ALK Kinase Assay (ELISA/TRF, PLC-γ substrate); format: biochemical; settings: read-out: ALK Potency
T1 construct: host or cells: baculovirus expression system
Method in brief: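 Time-resolved fluorescence ELISA using Eu-N1 PT66 antibody to detect phosphorylated PLC-γ (coated at 10 μg/mL). Enzyme at 30 ng/ml ALK; 15 min incubation, 37° C.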

[2] = molecular target: T2, JAK2 (Homo sapiens, UniProt O60674); experiment: Recombinant Human JAK2 Kinase Assay (TRF); format: biochemical; settings: read-out: JAK2 Potency
T2 construct: host or cells: baculovirus expression system
T2 sequence (O60674 whole entry): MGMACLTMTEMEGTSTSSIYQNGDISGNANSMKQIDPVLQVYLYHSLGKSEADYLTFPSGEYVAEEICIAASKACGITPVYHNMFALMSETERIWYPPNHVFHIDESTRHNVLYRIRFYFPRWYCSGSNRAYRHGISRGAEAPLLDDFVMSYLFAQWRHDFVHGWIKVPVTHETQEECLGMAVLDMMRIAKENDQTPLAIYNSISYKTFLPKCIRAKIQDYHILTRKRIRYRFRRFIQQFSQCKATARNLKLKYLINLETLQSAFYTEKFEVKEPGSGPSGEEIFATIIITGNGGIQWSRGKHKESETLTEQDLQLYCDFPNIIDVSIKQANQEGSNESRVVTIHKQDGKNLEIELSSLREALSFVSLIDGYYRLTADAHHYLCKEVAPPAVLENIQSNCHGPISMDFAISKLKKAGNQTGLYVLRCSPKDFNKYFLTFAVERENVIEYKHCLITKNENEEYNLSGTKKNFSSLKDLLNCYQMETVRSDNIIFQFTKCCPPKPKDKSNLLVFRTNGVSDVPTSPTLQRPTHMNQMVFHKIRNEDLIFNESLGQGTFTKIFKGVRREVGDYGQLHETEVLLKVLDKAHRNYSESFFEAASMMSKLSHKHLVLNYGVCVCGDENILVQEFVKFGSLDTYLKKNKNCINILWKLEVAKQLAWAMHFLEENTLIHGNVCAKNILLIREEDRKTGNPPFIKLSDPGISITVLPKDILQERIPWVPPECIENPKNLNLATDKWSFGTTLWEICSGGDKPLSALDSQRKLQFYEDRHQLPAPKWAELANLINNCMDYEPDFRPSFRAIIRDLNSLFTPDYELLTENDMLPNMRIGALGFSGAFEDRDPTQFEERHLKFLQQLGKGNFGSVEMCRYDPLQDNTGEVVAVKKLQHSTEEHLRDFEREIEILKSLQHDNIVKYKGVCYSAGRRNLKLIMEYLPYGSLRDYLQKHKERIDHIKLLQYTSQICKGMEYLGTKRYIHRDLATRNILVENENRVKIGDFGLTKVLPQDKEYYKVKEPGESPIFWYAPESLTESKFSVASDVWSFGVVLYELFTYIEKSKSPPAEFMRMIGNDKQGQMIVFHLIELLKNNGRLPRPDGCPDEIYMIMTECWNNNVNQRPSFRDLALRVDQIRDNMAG
Method in brief: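 Baculovirus-expressed JAK2 (15 ng/ml) phosphorylated a biotinylated 15-mer peptide captured on Neutravidin, in 20 mM HEPES pH 7.2, 0.2 μM ATP, 1 mM MnCl2, 0.1% BSA, 2.5% DMSO final, 20 min at room temperature. Phosphoproduct detected by time-resolved fluorescence with Eu-N1-labelled PY100 antibody.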

[3] = ALK kinase inhibition, 1 μM ATP
[4] = JAK2 kinase inhibition, 0.2 μM ATP

T1 sequence (Q9UM73 19-1620): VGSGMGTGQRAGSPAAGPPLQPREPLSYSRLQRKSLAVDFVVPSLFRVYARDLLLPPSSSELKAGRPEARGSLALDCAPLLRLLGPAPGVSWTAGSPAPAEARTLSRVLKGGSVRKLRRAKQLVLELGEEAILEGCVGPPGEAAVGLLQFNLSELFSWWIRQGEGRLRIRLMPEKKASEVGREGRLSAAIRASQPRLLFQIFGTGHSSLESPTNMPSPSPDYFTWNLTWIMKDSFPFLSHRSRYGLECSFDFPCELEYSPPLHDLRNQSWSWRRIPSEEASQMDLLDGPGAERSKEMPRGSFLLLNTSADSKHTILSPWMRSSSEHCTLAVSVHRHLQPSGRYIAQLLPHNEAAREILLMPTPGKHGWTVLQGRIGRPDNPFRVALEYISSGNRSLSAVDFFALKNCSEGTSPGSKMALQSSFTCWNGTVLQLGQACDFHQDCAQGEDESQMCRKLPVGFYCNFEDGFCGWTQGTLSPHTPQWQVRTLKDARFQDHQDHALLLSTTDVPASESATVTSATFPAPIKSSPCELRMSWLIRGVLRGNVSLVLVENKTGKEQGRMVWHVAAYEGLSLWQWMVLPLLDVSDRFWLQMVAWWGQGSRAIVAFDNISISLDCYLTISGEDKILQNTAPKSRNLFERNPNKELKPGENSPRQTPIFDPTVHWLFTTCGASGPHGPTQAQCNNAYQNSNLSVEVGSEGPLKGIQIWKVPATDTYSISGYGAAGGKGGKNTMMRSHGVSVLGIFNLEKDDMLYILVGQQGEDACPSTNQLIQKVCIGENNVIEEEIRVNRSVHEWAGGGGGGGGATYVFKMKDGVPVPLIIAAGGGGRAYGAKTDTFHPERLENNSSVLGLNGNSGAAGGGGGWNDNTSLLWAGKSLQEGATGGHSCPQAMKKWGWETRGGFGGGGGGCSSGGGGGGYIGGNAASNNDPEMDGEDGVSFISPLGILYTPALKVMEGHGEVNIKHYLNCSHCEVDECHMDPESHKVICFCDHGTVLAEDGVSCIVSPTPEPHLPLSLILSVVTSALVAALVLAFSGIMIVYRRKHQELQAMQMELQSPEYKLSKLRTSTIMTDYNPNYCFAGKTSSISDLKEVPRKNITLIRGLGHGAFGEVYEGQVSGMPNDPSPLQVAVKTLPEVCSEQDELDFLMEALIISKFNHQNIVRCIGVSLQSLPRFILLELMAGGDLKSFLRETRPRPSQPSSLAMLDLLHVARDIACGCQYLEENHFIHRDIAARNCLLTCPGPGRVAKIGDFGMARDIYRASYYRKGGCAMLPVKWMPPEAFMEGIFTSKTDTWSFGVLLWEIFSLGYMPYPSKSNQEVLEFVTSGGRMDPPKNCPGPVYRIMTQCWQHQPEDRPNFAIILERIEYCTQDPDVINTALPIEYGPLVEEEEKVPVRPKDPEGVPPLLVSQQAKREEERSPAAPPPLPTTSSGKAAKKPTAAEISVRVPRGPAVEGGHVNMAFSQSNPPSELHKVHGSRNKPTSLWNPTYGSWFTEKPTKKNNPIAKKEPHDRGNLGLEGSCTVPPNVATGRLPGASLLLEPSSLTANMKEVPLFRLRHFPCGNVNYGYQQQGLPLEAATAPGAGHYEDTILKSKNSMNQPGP

Structure (SMILES) | IC50 [1, 3] | IC50 [2, 4] | IC50 ([1]; ALK Kinase Inhibition) | IC50 ([2]; JAK2 Kinase Inhibition)
COc1ccccc1-c1ccc2cnc(Nc3cn(CC(=O)N4CCOCC4)cn3)nn12 [Example 1113, 2-{4-[7-(2-Methoxy-phenyl)-pyrrolo[2,1-f][1,2,4]triazin-2-ylamino]-imidazol-1-yl}-1-morpholin-4-yl-ethanone] | 1000 to 10000 nM | < 100 nM | – | –
CS(=O)(=O)c1cccc(-c2ccc3cnc(Nc4ccc(C5CN(CC(N)=O)C5)cc4)nn23)c1 [Example 578, 2-(3-{4-[7-(3-Methanesulfonyl-phenyl)-pyrrolo[2,1-f][1,2,4]triazin-2-ylamino]-phenyl}-azetidin-1-yl)-acetamide] | 100 to 1000 nM | < 100 nM | – | –
COc1cc(C2CCN(CCF)CC2)ccc1Nc1ncc2ccc(-c3ccccc3N(C)S(C)(=O)=O)n2n1 [Example 792, N-[2-(2-{4-[1-(2-Fluoro-ethyl)-piperidin-4-yl]-2-methoxy-phenylamino}-pyrrolo[2,1-f][1,2,4]triazin-7-yl)-phenyl]-N-methyl-methanesulfonamide] | < 100 nM | 100 to 1000 nM | – | –
COc1ccc(Nc2ncc3ccc(-c4ccccc4N(C)S(C)(=O)=O)n3n2)cc1N1CCOCC1 [Example 393, N-{2-[2-(4-Methoxy-3-morpholin-4-yl-phenylamino)-pyrrolo[2,1-f][1,2,4]triazin-7-yl]-phenyl}-N-methyl-methanesulfonamide] | – | – | < 100 nM | < 100 nM
COc1cc2c(cc1Nc1ncc3ccc(-c4cccc5c4OCC5)n3n1)CCN(C[C@@H](C)O)CC2 [Example 522, (R)-1-{7-[7-(2,3-Dihydro-benzofuran-7-yl)-pyrrolo[2,1-f]triazin-2-ylamino]-8-methoxy-1,2,4,5-tetrahydro-benzo[d]azepin-3-yl}-propan-2-ol] | < 100 nM | 100 to 1000 nM | – | –
COc1ccccc1-c1ccc2cnc(Nc3cc(OC)c(OC)c(OC)c3)nn12 [Example 142, [7-(2-Methoxy-phenyl)-pyrrolo[2,1-f][1,2,4]triazin-2-yl]-(3,4,5-trimethoxy-phenyl)-amine] | – | – | 100 to 1000 nM | < 100 nM
COc1cccc(Nc2ncc3cc4ccccc4n3n2)c1 [Example 272, (3-Methoxy-phenyl)-[1,2,4]triazino[1,6-a]indol-2-yl-amine] | – | – | > 10000 nM | < 100 nM
COc1cc(N2CCC[C@H](C(=O)N3CCN(C)CC3)C2)ccc1Nc1ncc2ccc(-c3ccccc3N(C)S(C)(=O)=O)n2n1 [Example 460, N-[2-(2-{2-Methoxy-4-[(S)-3-(4-methyl-piperazine-1-carbonyl)-piperidin-1-yl]-phenylamino}-pyrrolo[2,1-f][1,2,4]triazin-7-yl)-phenyl]-N-methyl-methanesulfonamide] | – | – | < 100 nM | 100 to 1000 nM
CC(C)(C)NS(=O)(=O)c1cccc(-c2ccc3cnc(Nc4ccc(F)c(N5CCOCC5)c4)nn23)c1 [Example 1394, N-tert-Butyl-3-[2-(4-fluoro-3-morpholin-4-yl-phenylamino)-pyrrolo[2,1-f][1,2,4]triazin-7-yl]-benzenesulfonamide] | – | – | 100 to 1000 nM | < 100 nM
CC(O)c1cccc(Nc2ncc3ccc(-c4cccc(S(=O)(=O)NC(C)(C)C)c4)n3n2)c1 (centres unmarked) [Example 569, N-tert-Butyl-3-{2-[3-(1-hydroxy-ethyl)-phenylamino]-pyrrolo[2,1-f][1,2,4]triazin-7-yl}-benzenesulfonamide] | 100 to 1000 nM | < 100 nM | – | –
CN1CCN(C)C(c2ccc(Nc3ncc4ccc(-c5cccc(S(=O)(=O)N6CCOCC6)c5)n4n3)cc2)C1=O (centres unmarked) [Example 1075, 1,4-Dimethyl-3-(4-{7-[3-(morpholine-4-sulfonyl)-phenyl]-pyrrolo[2,1-f][1,2,4]triazin-2-ylamino}-phenyl)-piperazin-2-one] | > 10000 nM | < 100 nM | – | –
Cn1cc(-c2ccc3cnc(Nc4ccc(C5CN(CC(N)=O)C5)cc4)nn23)cn1 [Example 585, 2-(3-{4-[7-(1-Methyl-1H-pyrazol-4-yl)-pyrrolo[2,1-f][1,2,4]triazin-2-ylamino]-phenyl}-azetidin-1-yl)-acetamide] | 100 to 1000 nM | < 100 nM | – | –
CN1CCN(c2cccc(Nc3ncc4ccc(-c5cccc(COC(C)(C)C)c5)n4n3)c2)CC1 [Example 1558, [7-(3-tert-Butoxymethyl-phenyl)-pyrrolo[2,1-f][1,2,4]triazin-2-yl]-[3-(4-methyl-piperazin-1-yl)-phenyl]-amine] | – | – | 100 to 1000 nM | < 100 nM
CN1CCN(c2ccc(Nc3ncc4ccc(-c5cccnc5F)n4n3)cc2)CC1 [Example 1041, [7-(2-Fluoro-pyridin-3-yl)-pyrrolo[2,1-f][1,2,4]triazin-2-yl]-[4-(4-methyl-piperazin-1-yl)-phenyl]-amine] | 100 to 1000 nM | < 100 nM | – | –
CC(C)(O)CN1CCN(c2ccc(Nc3ncc4ccc(-c5cccc(Cl)c5)n4n3)cc2)CC1 [Example 223, 1-(4-{4-[7-(3-Chloro-phenyl)-pyrrolo[2,1-f][1,2,4]triazin-2-ylamino]-phenyl}-piperazin-1-yl)-2-methyl-propan-2-ol] | – | – | < 100 nM | < 100 nM
COc1cc(OC2CCN(C)CC2)ccc1Nc1ncc2ccc(-c3ccccc3N(C)S(C)(=O)=O)n2n1 [Example 999, N-(2-{2-[2-Methoxy-4-(1-methyl-piperidin-4-yloxy)-phenylamino]-pyrrolo[2,1-f][1,2,4]triazin-7-yl}-phenyl)-N-methyl-methanesulfonamide] | < 100 nM | 100 to 1000 nM | – | –
COc1cc(N2CCCC(N3CCN(S(C)(=O)=O)CC3)C2)ccc1Nc1ncc2ccc(-c3ccccc3OC)n2n1 (centres unmarked) [Example 233, {4-[3-(4-Methanesulfonyl-piperazin-1-yl)-piperidin-1-yl]-2-methoxy-phenyl}-[7-(2-methoxy-phenyl)-pyrrolo[2,1-f][1,2,4]triazin-2-yl]-amine] | – | – | < 100 nM | < 100 nM
CC(C)(C)NS(=O)(=O)c1cccc(-c2ccc3cnc(Nc4ccc5nc(CN6CCOCC6)[nH]c5c4)nn23)c1 [Example 1514, N-tert-Butyl-3-[2-(2-morpholin-4-ylmethyl-3H-benzimidazol-5-ylamino)-pyrrolo[2,1-f][1,2,4]triazin-7-yl]-benzenesulfonamide] | – | – | 100 to 1000 nM | < 100 nM
NC(=O)CN1CCC(c2ccc(Nc3ncc4ccc(-c5cccc6c5OC(F)(F)O6)n4n3)cc2)CC1 [Example 1540, 2-(4-{4-[7-(2,2-Difluoro-benzo[1,3]dioxol-4-yl)-pyrrolo[2,1-f][1,2,4]triazin-2-ylamino]-phenyl}-piperidin-1-yl)-acetamide] | – | – | 100 to 1000 nM | < 100 nM
COc1cc2c(cc1Nc1ncc3ccc(-c4ccccc4OC)n3n1)CN(C(=O)OC(C)(C)C)C2 [Example 874, 5-Methoxy-6-[7-(2-methoxy-phenyl)-pyrrolo[2,1-f][1,2,4]triazin-2-ylamino]-1,3-dihydro-isoindole-2-carboxylic acid tert-butyl ester] | 1000 to 10000 nM | 1000 to 10000 nM | – | –
O=S(=O)(c1cccc(-c2ccc3cnc(Nc4ccc5nc(CO)[nH]c5c4)nn23)c1)N1CCCC1 [Example 1070, (6-{7-[3-(Pyrrolidine-1-sulfonyl)-phenyl]-pyrrolo[2,1-f][1,2,4]triazin-2-ylamino}-1H-benzoimidazol-2-yl)-methanol] | 1000 to 10000 nM | < 100 nM | – | –
CCN1CCC(O)(c2ccc(Nc3ncc4ccc(-c5ccccc5N(C)S(C)(=O)=O)n4n3)c(OC)c2)CC1 [Example 743, N-(2-{2-[4-(1-Ethyl-4-hydroxy-piperidin-4-yl)-2-methoxy-phenylamino]-pyrrolo[2,1-f][1,2,4]triazin-7-yl}-phenyl)-N-methyl-methanesulfonamide] | < 100 nM | 1000 to 10000 nM | – | –
COc1ccc(Cl)cc1-c1ccc2cnc(Nc3ccc(N4CCN(CC(C)(C)O)CC4)cc3)nn12 [Example 222, 1-(4-{4-[7-(5-Chloro-2-methoxy-phenyl)-pyrrolo[2,1-f][1,2,4]triazin-2-ylamino]-phenyl}-piperazin-1-yl)-2-methyl-propan-2-ol] | – | – | < 100 nM | < 100 nM
COc1cc(N2CCCN(C)CC2)ccc1Nc1ncc2ccc(-c3ccccc3OC)n2n1 [Example 765, [2-Methoxy-4-(4-methyl-[1,4]diazepan-1-yl)-phenyl]-[7-(2-methoxy-phenyl)-pyrrolo[2,1-f][1,2,4]triazin-2-yl]-amine] | < 100 nM | 100 to 1000 nM | – | –
COc1ccccc1-c1ccc2cnc(Nc3ccc(N4CCC(N5CCOCC5)CC4)cc3)nn12 [Example 334, [7-(2-Methoxy-phenyl)-pyrrolo[2,1-f][1,2,4]triazin-2-yl]-[4-(4-morpholin-4-yl-piperidin-1-yl)-phenyl]-amine] | – | – | < 100 nM | < 100 nM
COc1cc(C2=CCNCC2)ccc1Nc1ncc2ccc(-c3ccccc3N(C)S(C)(=O)=O)n2n1 [Example 742, N-(2-{2-[2-Methoxy-4-(1,2,3,6-tetrahydro-pyridin-4-yl)-phenylamino]-pyrrolo[2,1-f][1,2,4]triazin-7-yl}-phenyl)-N-methyl-methanesulfonamide] | < 100 nM | 100 to 1000 nM | – | –
CS(=O)(=O)c1ccc(-c2ccc3cnc(Nc4ccc(N5CCN(CCO)CC5)cc4)nn23)cc1 [Example 88, 2-(4-{4-[7-(4-Methanesulfonyl-phenyl)-pyrrolo[2,1-f][1,2,4]triazin-2-ylamino]-phenyl}-piperazin-1-yl)-ethanol] | – | – | 100 to 1000 nM | < 100 nM
COc1cc(N2CCC(N3CCOCC3)CC2)ccc1Nc1ncc2ccc(-c3ccccc3[S+](C)[O-])n2n1 (centres unmarked) [Example 544, [7-(2-Methanesulfinyl-phenyl)-pyrrolo[2,1-f][1,2,4]triazin-2-yl]-[2-methoxy-4-(4-morpholin-4-yl-piperidin-1-yl)-phenyl]-amine] | 100 to 1000 nM | 100 to 1000 nM | – | –
